Source: PMC3326647, “Single Enantiomer of YK-4-279 Demonstrates Specificity in Targeting the Oncogene EWS-FLI1” (Oncotarget, 2012)
Like-named read-outs stand apart in the source and are kept apart here.

How the values were obtained:
[1] = system: EWS-FLI1 and RHA; experiment: ELISA of binding between EWS-FLI1 and RHA
Protocol: EWS-FLI1 was used to coat the surface of a 96 well plate (MaxiSorb) at a concentration of 150ng/well in 100μL buffer containing 20mM Tris, 500mM sodium chloride, and 1M imidazole. Following overnight incubation, the plate was blocked with 4% BSA in PBS and washed with PBS + 0.1% Tween-20. Small molecules were added at concentrations of 1μM, 3μM, 10μM, and 30μM, followed by RHA (300ng/well) and allowed to incubate overnight. Following washing, incubation with RHA antibody (Everest) and anti-goat secondary, protein binding was detected using a TMB Peroxidase EIA Substrate Kit (Bio-Rad) per the manufacturer's instructions.

[2] = system: A4573 cells; experiment: Cellular proliferation (WST) assay, A4573; format: cell-based; details: 72 h; A4573, ESFT (Type 3); read-out: IC50 at 3 days (+/− SEM)
Protocol: (§1) TC32, TC71, RDES, MMH-ES-1, STA-ET 7.2, A4573, and PC3 cells were grown in RPMI with 10% FBS and 1% HEPES. SKES cells were grown in McCoy's 5A medium with 15% FBS. MCF7, MDA-MB-231, PANC1, and ASPC1 cells were grown in colorless DMEM with 10% FBS. Cells were grown at a plating density of 5,000 – 15,000 cells/well, depending on cell line, in a 96-well plate. Small molecule or vehicle alone (DMSO) were added to cells in appropriate growth media the day after plating. After three days, viable cells were quantified using WST (Roche) according to the manufacturer's protocol. IC50 values were calculated by sigmoidal dose-response curve fit using Prism Graphpad 4.0.

[3] = system: SKES cells; experiment: Cellular proliferation (WST) assay, SKES; format: cell-based; details: 72 h, ESFT (Type 2), read-out: IC50 at 3 days (+/− SEM)
Protocol: as §1

[4] = system: non-ESFT cell lines (PC3, MCF7, MDA-MB-231, PANC1, ASPC1); experiment: Cellular proliferation (WST) assay, panel of five non-ESFT cell lines; format: cell-based; details: 72 h
Protocol: as §1

[5] = system: PANC1 cells; experiment: Cellular proliferation (WST) assay, PANC1; format: cell-based; details: Homo sapiens, PANC-1, 72 h; PANC1, pancreatic; read-out: IC50 at 3 days (+/− SEM)
Protocol: as §1

[6] = system: Cyclin D1b/D1a mRNA level in A673i cells; experiment: Quantitative RT-PCR of Cyclin D1b/D1a mRNA in A673i cells; format: cell-based; details: 1μM, 8 hours
Protocol: A673i cells were treated with 1μM small molecule for 8 hours. Positive control cells were treated with tetracycline for 72 hours to knock down expression of EWS-FLI1. Total RNA was extracted using an RNeasy Micro Kit (Qiagen) and reverse transcribed using the Transcriptor First Strand cDNA Synthesis Kit (Roche) per the manufacturer's instructions. qPCR was performed using an Eppendorf Mastercycler Realplex with FastStart Universal SYBR Green Master with ROX (Roche) with primers for 18S, CyclinD1a, and CyclinD1b. Data were analyzed for expression relative to 18S using the comparative Ct method. Data from four separate experiments performed in duplicate were averaged.

[7] = system: MCF7 cells; experiment: Cellular proliferation (WST) assay, MCF7; format: cell-based; details: Homo sapiens, 72 h; MCF7, breast; read-out: IC50 at 3 days (+/− SEM)
Protocol: as §1

[8] = system: TC71 cells; experiment: Cellular proliferation (WST) assay, TC71; format: cell-based; details: for IC50: TC-71, 72 h, TC71, ESFT (Type 1), read-out: IC50 at 3 days (+/− SEM)
Protocol: as §1

[9] = system: ASPC1 cells; experiment: Cellular proliferation (WST) assay, ASPC1; format: cell-based; details: Homo sapiens, 72 h; ASPC1, pancreatic; read-out: IC50 at 3 days (+/− SEM)
Protocol: as §1

[10] = molecular target: T1, EWS-FLI1/RHA interaction in TC32 cells (Homo sapiens, UniProt Q01543+Q01844); experiment: Co-immunoprecipitation of EWS-FLI1 and RHA from treated TC32 cells, western blot densitometry; format: cell-based; details: 15 hours; for RHA coimmunoprecipitated with EWS-FLI1: 10μM; for IC50: 0.3 to 10μM, read-out: IC50, densitometry of RHA relative to FLI1
T1 construct: FLI1 C-terminal portion (fusion partner, Q01543); endogenous in cells; host or cells: TC32
T1 sequence (Q01844+Q01543 with tags, fused parts or gaps): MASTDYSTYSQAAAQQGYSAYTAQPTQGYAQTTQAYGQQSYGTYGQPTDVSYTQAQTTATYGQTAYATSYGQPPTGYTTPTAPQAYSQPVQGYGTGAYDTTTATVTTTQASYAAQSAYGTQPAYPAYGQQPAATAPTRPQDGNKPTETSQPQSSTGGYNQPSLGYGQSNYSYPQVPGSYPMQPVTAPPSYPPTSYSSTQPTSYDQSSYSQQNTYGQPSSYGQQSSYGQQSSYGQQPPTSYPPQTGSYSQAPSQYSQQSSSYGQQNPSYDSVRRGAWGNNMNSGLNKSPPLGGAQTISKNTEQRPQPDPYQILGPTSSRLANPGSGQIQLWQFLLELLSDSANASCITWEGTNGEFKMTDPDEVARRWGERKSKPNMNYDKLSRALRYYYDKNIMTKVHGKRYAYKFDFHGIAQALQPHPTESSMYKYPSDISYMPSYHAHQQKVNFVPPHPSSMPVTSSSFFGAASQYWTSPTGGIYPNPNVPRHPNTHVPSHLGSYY
Protocol: TC32 were grown to ~70% confluency and cells were treated for 15 hours with small molecule. Nuclear lysate was collected using the Active Motif Magnetic Co-IP Kit (Active Motif). Protein concentration was determined using bicinchoninic acid protein assay for each lysate (Pierce) and lysate was bound to 1μg of antibody overnight at 4C on a rotating axis with addition of same concentration of small molecule as used for 15 hour treatment. Magnetic beads (Active Motif) were added to the lysates and tumbled for 2 hours at 4C. Immunoprecipitated proteins were resolved using 10% PAGE and transferred to a polyvinylidene difluoride membrane (Millipore). Membranes were blocked in 5% nonfat dry milk in TTBS (20mM Tris-HCl, 150mM NaCl, 0.5% Tween 20) for 2 hours. FLI1 (Santa Cruz Biotechnologies) and RHA (Abcam) antibodies were used at 1:1000 dilutions in 5% nonfat dry milk for 2 hours. Horseradish peroxidase-linked anti-rabbit antibody (GE Healthcare) was added for 1 hour. Detection was carried out using Millipore Immobilon Western Chemiluminescent HRP Substrate per the manufacturer's instructions (Millipore Corp.). Chemiluminescence was detected using a Fujifilm LAS-3000 imaging system. Densitometry values were obtained using ImageJ software.

[11] = system: PC3 cells; experiment: Cellular proliferation (WST) assay, PC3; format: cell-based; details: Homo sapiens, PC-3, 72 h, read-out: IC50 at 3 days (+/− SEM)
Protocol: as §1

[12] = system: STA-ET 7.2 cells; experiment: Cellular proliferation (WST) assay, STA-ET 7.2; format: cell-based; details: 72 h; STA-ET 7.2, ESFT (Type 2); read-out: IC50 at 3 days (+/− SEM)
Protocol: as §1

[13] = system: ESFT cell lines; experiment: Cellular proliferation (WST) assay, panel of seven ESFT cell lines; format: cell-based; details: 72 h
Protocol: as §1

[14] = read-out: Mean IC50 at 3 days (+/− SEM), mean over five non-ESFT cell lines
[15] = mean over seven ESFT cell lines, read-out: Mean IC50 at 3 days (+/− SEM)
[16] = seven EWS-FLI1 expressing cell lines, three days, read-out: range of mean IC50 values across ESFT cell lines
[17] = as little as 1μM small molecule

With COc1ccc(C(=O)C[C@]2(O)C(=O)Nc3c(Cl)ccc(Cl)c32)cc1 [(R)-YK-4-279] the “inhibition of EWS-FLI1/RHA binding” value ([1]; 30μM) was “does not inhibit the binding”, the IC50 [2] was 11.7 µM and the IC50 [3] was 21 µM. For the same compound, the IC50 [4, 14] was > 30 µM, the IC50 [5] was 24.9 µM and the “D1b/D1a mRNA ratio” value [6] was “maintained a D1b/D1a ratio equivalent to the vehicle treated cells”. For the same compound, the IC50 [7] was > 30 µM, the IC50 [8] was 20.9 µM and the IC50 [9] was > 30 µM. The “RHA coimmunoprecipitated with EWS-FLI1” value [10] was “coimmunoprecipitation of EWS-FLI1 with RHA”, the IC50 [11] was > 30 µM and the IC50 [12] was 21.2 µM. For the same compound, the IC50 [13, 15] was 18.5 µM and the IC50 [13, 16] was 11.7 to 26 µM.
For COc1ccc(C(=O)C[C@@]2(O)C(=O)Nc3c(Cl)ccc(Cl)c32)cc1 [(S)-YK-4-279], the “inhibition of EWS-FLI1/RHA binding” value [1, 17] was “able to inhibit the protein-protein interaction”, the IC50 [2] was 0.23 µM and the IC50 [3] was 0.18 µM. The IC50 [4, 14] was 6.86 µM, the IC50 [5] was 1.69 µM and the “D1b/D1a mRNA ratio” value [6] was “reduced this ratio to a level equivalent to the EWS-FLI1 reduction”. For the same compound, the “more potent at the D1b/D1a reduction than racemic” value [6] was “approximately 35%”, the IC50 [7] was 19.5 µM and the “fold-difference in IC50 between the racemic and the active enantiomer” value ([8]; TC71 cells) was “more than a log-fold difference”. The IC50 [8] was 0.16 µM, the IC50 [9] was 8.16 µM and the “RHA coimmunoprecipitated with EWS-FLI1” value [10] was “significant reduction in complexed RHA”. It also gave an IC50 [10] of 1.8 µM, an IC50 [11] of 3.79 µM and an IC50 [12] of 0.31 µM. The IC50 [13, 15] was 0.34 µM and the IC50 [13, 16] was 0.16 to 0.87 µM.
For COc1ccc(C(=O)CC2(O)C(=O)Nc3c(Cl)ccc(Cl)c32)cc1 (stereo not shown) [YK-4-279], the “inhibition of EWS-FLI1/RHA binding” value [1, 17] was “able to inhibit the protein-protein interaction”, the IC50 [2] was 1.46 µM and the IC50 [3] was 0.33 µM. For the same compound, the IC50 ([4]; read-out: Mean IC50 at 3 days (+/− SEM)) was 8.88 µM, the IC50 [5] was 1.51 µM and the “D1b/D1a mRNA ratio” value [6] was “reduction in the D1b/D1a levels”. It also gave an IC50 [7] of 22.8 µM, an IC50 [8] of 1.83 µM and an IC50 [9] of 14.3 µM. For the same compound, the “RHA coimmunoprecipitated with EWS-FLI1” value [10] was “significant reduction in complexed RHA”, the IC50 [10] was 4.9 µM and the IC50 [11] was 4.95 µM. The IC50 [12] was 0.6 µM, the IC50 [13, 15] was 1.02 µM and the IC50 [13, 16] was 0.33 to 1.83 µM.
